Reference: PMC9873984, “Membrane cholesterol regulates inhibition and substrate transport by the glycine transporter, GlyT2” (Life Science Alliance, 2023)
Positions count from the first letter of the chain named.

Columns and labels:
Format in all cases: cell-based
Design in all cases: expressed in transfected cells; host or cells: Xenopus laevis oocytes injected with mutant RNA (pOTV vector)
[1] = target: T1, GlyT2 Y430L mutant (Homo sapiens, UniProt Q9Y345, Y430L); assay: Inhibitor concentration–responses on glycine transport currents, two-electrode voltage clamp; settings: for IC50: Y430L GlyT2 in Xenopus laevis oocytes
T1 sequence (Q9Y345 1-797 Y430L): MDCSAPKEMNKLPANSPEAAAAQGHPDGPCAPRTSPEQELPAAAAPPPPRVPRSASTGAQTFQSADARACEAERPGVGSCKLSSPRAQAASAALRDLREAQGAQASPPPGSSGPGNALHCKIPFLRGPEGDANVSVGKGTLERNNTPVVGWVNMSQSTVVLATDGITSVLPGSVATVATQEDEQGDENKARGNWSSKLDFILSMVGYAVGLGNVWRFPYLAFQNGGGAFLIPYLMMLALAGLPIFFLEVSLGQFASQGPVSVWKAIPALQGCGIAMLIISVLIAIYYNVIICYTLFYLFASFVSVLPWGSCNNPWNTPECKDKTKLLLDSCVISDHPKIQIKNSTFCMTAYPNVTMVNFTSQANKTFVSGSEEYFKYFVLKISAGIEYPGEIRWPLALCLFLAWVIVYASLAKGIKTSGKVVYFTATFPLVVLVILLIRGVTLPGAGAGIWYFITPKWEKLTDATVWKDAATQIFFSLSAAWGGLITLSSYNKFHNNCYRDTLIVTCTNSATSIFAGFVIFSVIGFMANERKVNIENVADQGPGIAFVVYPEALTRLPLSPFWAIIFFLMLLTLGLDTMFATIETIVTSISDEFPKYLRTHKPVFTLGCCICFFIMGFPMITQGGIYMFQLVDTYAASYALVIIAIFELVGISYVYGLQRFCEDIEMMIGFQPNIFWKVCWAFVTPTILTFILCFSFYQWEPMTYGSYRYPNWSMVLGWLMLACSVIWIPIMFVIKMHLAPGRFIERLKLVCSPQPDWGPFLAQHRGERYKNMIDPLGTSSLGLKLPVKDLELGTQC
Experimental: (§1) Because of the slowly reversible nature of the compounds tested, inhibitor concentration–responses were performed cumulatively. An EC50 concentration of glycine was applied until a stable transport current was reached. EC50 concentrations of glycine were used to produce reliable currents for each transporter, and as the inhibitors are non-competitive, application of varying glycine concentrations is unlikely to affect their activity. Increasing concentrations of inhibitors were co-applied with glycine with each concentration producing a distinct plateau before the subsequent concentration was applied. Inhibitor concentration–responses were limited to a maximum concentration of 3 µM to mitigate the risk of changes to the free drug concentration because of micelle formation. Currents after the plateau of each inhibitor concentration were normalized to the current produced by application of glycine alone and fit using the method of least squares: Y=Bottom+(Top−Bottom)/(1+10^[X−LogIC50]), where X is log [inhibitor], Y is current normalized to glycine in the absence of inhibitor, and Top and Bottom are the maximal and minimal plateaus, respectively. The method of least squares was constrained to have the bottom value >0 and the hill slope as −1, enabling the calculation of IC50 values and the extent of inhibition produced by the maximal concentration applied.
(§2) IC50 values are presented as the mean and 95% confidence interval, whereas inhibition values are presented as the mean ± SEM. Data sets are n ≥ 5 from two batches of oocytes.

[2] = target: T2, GlyT2 T512A mutant (Homo sapiens, UniProt Q9Y345, T512A); assay: as above; settings: for IC50: T512A GlyT2 in Xenopus laevis oocytes
T2 sequence (Q9Y345 1-797 T512A): T1 sequence (Q9Y345 1-797 Y430L) with L430Y, T512A
Experimental: as §1, §2

[3] = target: T2, GlyT2 T512A mutant; assay: Inhibitor washout time course (reversibility); settings: for Half-life (transport current recovery) / Recovery at 30 Min: washout after 4 min IC50 concentration
Experimental: Reversibility of GlyT2 inhibitors was determined by applying an EC50 concentration of glycine followed by co-application of the inhibitor at an IC50 concentration once a stable current had been achieved. Inhibitors were applied for 4 min as this was sufficient time to produce substantial inhibition for each compound and allowed for their direct comparison. At the conclusion of 4 min (time 0), ND96 buffer was perfused through the recording chamber to wash the oocyte. […] Transport currents were normalized to glycine currents in the absence of inhibitor and converted to % recovery values via Y=It−It=0/Imax−It=0, where Y is % recovery, I is current in nA, Imax is the maximal current produced by the glycine EC50, and t is time in minutes. Washout kinetics were then determined by fitting % recovery values to the first-order rate equation: Y=(Y0−Plateau).e^(−Kt)+Plateau, where Y is the % recovery, Y0 is the point, which crosses the Y-axis (constrained to 0) and increases to the plateau (constrained to between 0 and 100), K is the rate constant (1/t), and t is time in minutes. […] Because of the slowly […] nature of the inhibitors, washout time courses involving cyclodextrin treatment could not be performed on the same cell. […] As these experiments could not occur on the same cell, differences in half-life and maximal recovery were analysed via an unpaired two-tailed t test.

| IC50 [1] [nM] | Inhibition at 3 μM ([1]; Y430L) [%] | IC50 [2] [nM] | Inhibition at 3 μM ([2]; T512A) [%] | Half-life (transport current recovery) ([3]; T512A) | Recovery at 30 Min ([3]; T512A) | IC50 ([1]; 95% CI could not be fit) [nM] | Inhibition at 1 µM (column head 3 μM, footnote b) ([1]; Y430L, 1 µM) | IC50 ([2]; 95% CI could not be fit) [nM] | Inhibition at 1 µM (column head 3 μM, footnote b) ([2]; T512A, 1 µM) | Increase of recovery after 30 min compared to WT ([3]; T512A vs WT) [fold] | Increase in recovery of current 30 min after application, vs WT ([3]; T512A) [%] | IC50 ([1]; listed as OLLys) [nM] | Reduction of potency compared with WT ([1]; Y430L vs WT) | SMILES |
| --- | --- | --- | --- | --- | --- | --- | --- | --- | --- | --- | --- | --- | --- | --- |
| 57 | 83.5 ± 3.2 | 85 | 74.4 ± 4.5 | No Recovery | No Recovery |  |  |  |  |  |  |  |  | CCCCCCCC/C=C\CCCCCCCC(=O)N[C@@H](Cc1c[nH]c2ccccc12)C(=O)O [Oleoyl-L-Tryptophan, oleoyl-L-tryptophan] |
|  |  |  |  |  | 79.4% | 1100 | 49.6 ± 2.9^b % | 1700 | 44.1 ± 2.8^b % | 1.8 |  |  |  | CCCCCCCC/C=C\CCCCCCCC(=O)O[C@H](CC(=O)[O-])C[N+](C)(C)C [Oleoyl-L-Carnitine, oleoyl-L-carnitine] |
| 375 | 63.8 ± 2.6 | 549 | 50.7 ± 5.7 | 1.7 ± 0.3 min | 76.2 ± 4.1 % |  |  |  |  |  | 25.1 |  |  | CCCCCCCC/C=C\CCCCCCCC(=O)N[C@@H](CC(C)C)C(=O)O [Oleoyl-L-Leucine, oleoyl-L-leucine] |
| 863 | 69.7 ± 4.7 | 679 | 68.0 ± 1.7 |  | 63.5 ± 2.0% |  |  |  |  |  |  | 860 | fourfold | CCCCCCCC/C=C\CCCCCCCC(=O)N[C@@H](CCCCN)C(=O)O [Oleoyl-L-Lysine, oleoyl-L-lysine] |
